# Results reported in US8895547B2, “Substituted phenyl-oxathiazine derivatives, method for producing them, drugs containing said compounds and the use thereof” (Sanofi, priority 2011, dated 2014).
# Target: T1, human 11β-HSD1 (Homo sapiens, UniProt P28845)
# T1 construct: host or cells: microsome fraction
# Assay: Enzymatic 11beta-HSD1 test (SPA-based detection)
# Format: biochemical
# Conditions: human 11β-HSD1 microsome fraction, [1,2-3H]-cortisone, NADPH, 37° C. 1 hour
# Outline: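 Human 11β-HSD1 microsomes (0.2 µg protein) converted [1,2-3H]-cortisone ([…]) for 1 h at 37 °C. The reaction buffer was HEPES/KCl/NaCl/MgCl2 with 0.25 mM NADPH, with compounds added in DMSO. The reaction was stopped with SPA beads, anti-cortisol monoclonal antibody and 0.01 mM SSR110887; after 1 h at room temperature, [3H]-cortisol was scintillation-counted.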
# T1 sequence (P28845 whole entry): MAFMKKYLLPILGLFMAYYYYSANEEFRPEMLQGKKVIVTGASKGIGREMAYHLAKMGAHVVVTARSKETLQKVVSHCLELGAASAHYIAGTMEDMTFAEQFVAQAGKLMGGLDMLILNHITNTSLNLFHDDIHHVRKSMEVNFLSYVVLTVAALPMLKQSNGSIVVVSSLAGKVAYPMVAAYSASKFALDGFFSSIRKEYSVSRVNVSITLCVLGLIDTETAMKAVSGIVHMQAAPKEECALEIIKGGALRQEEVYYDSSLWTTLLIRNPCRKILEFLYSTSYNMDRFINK
row,IC50 [nM],Structure (SMILES)
1,3,"CC1(C)OC(N[C@@H](CCO)c2ccccc2F)=NS(=O)(=O)[C@H]1c1ccc(-c2ccnc(C#N)c2)cc1 [Example 184, 4-(4-{(S)-2-[(S)-1-(2-fluorophenyl)-3-hydroxy-propylamino]-6,6-dimethyl-4,4-dioxo-5,6-dihydro-4H-4lambda6-[1,4,3]oxathiazin-5-yl}-phenyl)-pyridine-2-carbonitrile]"
2,4,"CC1(C)OC(N[C@@H](CCO)c2ccccc2F)=NS(=O)(=O)[C@@H]1c1ccc(-c2ccnc(C#N)c2)cc1 [Example 185, 4-(4-{(R)-2-[(S)-1-(2-fluorophenyl)-3-hydroxy-propylamino]-6,6-dimethyl-4,4-dioxo-5,6-dihydro-4H-4lambda6-[1,4,3]oxathiazin-5-yl}-phenyl)-pyridine-2-carbonitrile]"
3,11,"C[C@H](NC1=NS(=O)(=O)[C@@H](c2ccc(-c3ccnc(C#N)c3)cc2)C(C)(C)O1)c1ccccc1F [Example 186, 4-(4-{(S)-2-[(S)-1-(2-fluorophenyl)-ethylamino]-6,6-dimethyl-4,4-dioxo-5,6-dihydro-4H-4lambda6-[1,4,3]oxathiazin-5-yl}-phenyl)-pyridine-2-carbonitrile]"
4,5,"C[C@H](NC1=NS(=O)(=O)[C@H](c2ccc(-c3ccnc(C#N)c3)cc2)C(C)(C)O1)c1ccccc1F [Example 187, 4-(4-{(R)-2-[(S)-1-(2-fluorophenyl)-ethylamino]-6,6-dimethyl-4,4-dioxo-5,6-dihydro-4H-4lambda6-[1,4,3]oxathiazin-5-yl}-phenyl)-pyridine-2-carbonitrile]"
5,7,"CC1(C)OC(N[C@@H](CCO)c2ccccc2F)=NS(=O)(=O)[C@H]1c1ccc(-c2ccnc(C(N)=O)c2)cc1 [Example 188, 4-(4-{(S)-2-[(S)-1-(2-fluorophenyl)-3-hydroxy-propylamino]-6,6-dimethyl-4,4-dioxo-5,6-dihydro-4H-4lambda6-[1,4,3]oxathiazin-5-yl}-phenyl)-pyridine-2-carboxamide]"
6,5,"CC1(C)OC(N[C@@H](CCO)c2ccccc2F)=NS(=O)(=O)[C@@H]1c1ccc(-c2ccnc(C(N)=O)c2)cc1 [Example 189, 4-(4-{(R)-2-[(S)-1-(2-fluorophenyl)-3-hydroxy-propylamino]-6,6-dimethyl-4,4-dioxo-5,6-dihydro-4H-4lambda6-[1,4,3]oxathiazin-5-yl}-phenyl)-pyridine-2-carboxamide]"

# Continued, compound first:
row,Structure (SMILES),IC50 [nM]
1,"C[C@H](NC1=NS(=O)(=O)C(c2ccc(-c3ccnc(C#N)c3)nc2)C(C)(C)O1)c1ccccc1F (stereo partly drawn) [Example 190, 5-{2-[(S)-1-(2-fluorophenyl)-ethylamino]-6,6-dimethyl-4,4-dioxo-5,6-dihydro-4H-4lambda6-[1,4,3]oxathiazin-5-yl}-[2,4′]bipyridinyl-2′-carbonitril]",331
2,"C[C@H](NC1=NS(=O)(=O)C(c2ccc(-c3ccnc(C#N)c3)nc2)C(C)(C)O1)c1ccccc1F (stereo partly drawn) [Example 191, 5-{2-[(S)-1-(2-fluorophenyl)-ethylamino]-6,6-dimethyl-4,4-dioxo-5,6-dihydro-4H-4lambda6-[1,4,3]oxathiazin-5-yl}-[2,4′]bipyridinyl-2′-carbonitril]",460
3,"C[C@H](NC1=NS(=O)(=O)C(c2cccc(C(=O)N3CCOCC3)c2)C(C)(C)O1)c1ccccc1F (stereo partly drawn) [Example 192, (3-{2-[(S)-1-(2-fluorophenyl)-ethylamino]-6,6-dimethyl-4,4-dioxo-5,6-dihydro-4H-4lambda6-[1,4,3]oxathiazin-5-yl}-phenyl)-morpholin-4-yl-methanone]",252
4,"C[C@H](NC1=NS(=O)(=O)C(c2cccc(C(=O)N3CCCN(C)CC3)c2)C(C)(C)O1)c1ccccc1F (stereo partly drawn) [Example 193, (3-{2-[(S)-1-(2-fluorophenyl)-ethylamino]-6,6-dimethyl-4,4-dioxo-5,6-dihydro-4H-4lambda6-[1,4,3]oxathiazin-5-yl}-phenyl)-(4-methyl-[1,4]diazepan-1-yl)-methanone]",476
5,"C[C@H](NC1=NS(=O)(=O)C(c2cccc(C(=O)NCc3ccccn3)c2)C(C)(C)O1)c1ccccc1F (stereo partly drawn) [Example 194, 3-{2-[(S)-1-(2-fluorophenyl)-ethylamino]-6,6-dimethyl-4,4-dioxo-5,6-dihydro-4H-4lambda6-[1,4,3]oxathiazin-5-yl}-N-pyridin-2-ylmethyl-benzamide]",14
6,"C[C@H](NC1=NS(=O)(=O)C(c2ccc(-c3ccc4nc(N)sc4c3)cc2)C(C)(C)O1)c1ccccc1F (stereo partly drawn) [Example 195, 6-(4-{2-[(S)-1-(2-fluorophenyl)-ethylamino]-6,6-dimethyl-4,4-dioxo-5,6-dihydro-4H-4lambda6-[1,4,3]oxathiazin-5-yl}-phenyl)-benzothiazol-2-ylamine]",40
7,"C[C@H](NC1=NS(=O)(=O)C(c2ccc(-c3cnc(N)nc3)cc2)C(C)(C)O1)c1ccccc1F (stereo partly drawn) [Example 196, {5-[4-(2-Amino-pyrimidin-5-yl)-phenyl]-6,6-dimethyl-4,4-dioxo-5,6-dihydro-4H-4lambda6-[1,4,3]oxathiazin-2-yl}-[(S)-1-(2-fluorophenyl)-ethyl]-amine]",7
